Results: patent publication US9458120B2, “Phenoxypropanol derivative and pharmaceutical composition including the same” (KOREA INSTITUTE OF SCIENCE AND TECHNOLOGY, priority 2011, dated 2016)

Molecular target: T1, TREK-1 channel (Rattus norvegicus, UniProt Q920B6)
T1 construct: expressed in transfected cells; host or cells: COS7 (Korean Cell Line Bank), transient transfection with Effectene
T1 sequence (Q920B6 1-426): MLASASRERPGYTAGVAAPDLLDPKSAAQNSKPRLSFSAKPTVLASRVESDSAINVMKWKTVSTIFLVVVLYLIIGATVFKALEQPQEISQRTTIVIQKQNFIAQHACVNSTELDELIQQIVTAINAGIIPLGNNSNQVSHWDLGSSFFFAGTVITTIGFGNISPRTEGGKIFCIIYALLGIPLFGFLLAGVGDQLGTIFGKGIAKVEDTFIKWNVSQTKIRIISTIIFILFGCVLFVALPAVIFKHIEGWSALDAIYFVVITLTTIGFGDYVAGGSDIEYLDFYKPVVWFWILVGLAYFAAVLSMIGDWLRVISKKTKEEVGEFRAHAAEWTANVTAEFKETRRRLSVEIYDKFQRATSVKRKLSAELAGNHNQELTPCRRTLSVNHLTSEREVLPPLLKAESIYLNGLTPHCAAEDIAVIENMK
Test: Assay for TREK channel inhibition activity (whole cell patch clamp recording, COS7 cell transfected with GFP-rTREK-1)
Type: cell-based
Details: COS7 cells, GFP-rTREK-1, whole-cell patch clamp; for inhibition at 10 µM: COS-7, Table 2, read-out: block % at 10 μM; for inhibition at 101 µM: COS-7, Table 3 (value ± spread), 101 μM [sic], read-out: block % at 101 μM
Protocol: The inhibition activity of the compound of the present invention against TREK-1 channel was measured by measuring the physiological activity by whole cell patch clamp recording.
COS7 cell (obtained from Korean Cell Line Bank (KCLB)) was transfected with GFP-rTREK-1 gene (accession number: AY727922) using an Effectene transfection reagent (Qiagen), and cultured for 24 hours in an incubator at 37° C. As a culture medium, Dulbecco's modified Eagle's medium (DMEM, GIBCO products from Invitrogen) containing 10% by weight of fetal bovine serum (FBS) and 1% by weight of penicillin/streptomycin (5000 unit/ml) was used. The cells thus prepared were adhered on a cover glass, which was placed on a chamber, and then a recording solution (150 mM NaCl, 10 mM HEPES, 10 mM KCl, 2 mM CaCl2, 5.5 mM D-Glucose, all reagents were purchased from Sigma) was applied. A glass microelectrode was filled with an intracellular solution prepared with the composition of 150 mM KCl, 5 mM EGTA, 10 mM HEPES, 0.5 mM CaCl2, 1 mM MgCl2, 4 mM Mg-ATP, and 0.3 mM Na-GTP (all reagents were purchased from Sigma), followed by whole-cell patch clamp recording. The voltage was fixed at −70 mV using a Digidata 1322A data acquisition system (Molecular Devices) and an Axopatch 200A amplifier (Axon Instruments), and the current generated by applying a voltage ramp from −100 mV to +100 mV for 1 second was measured using a Clampex9.2 program. A difference between the current values measured at +100 mV and −100 mV was defined as a current in the above experiment. The currents before and after blocker treatment were measured so as to determine the inhibition activity.
Block %=100−(current after blocker treatment/current before blocker treatment)*100

Row | inhibition at 10 µM | inhibition at 101 µM | block % at 100 μM (Table 2) | block % at 100 μM (Table 3 (value ± spread)) | SMILES
1 |  | 48.5 ± 4.26% |  |  | CC(C)Cc1cc(CN2CCN(C[C@@H](O)COc3ccc(C(F)(F)F)cc3)CC2)nn1-c1ccccc1 [KKRE10231]
2 |  | 21.7 ± 3.13% |  |  | CC(C)Cc1cc(CN2CCN(C[C@H](O)COc3ccc(F)cc3)CC2)nn1-c1ccccc1 [KKRE10232]
3 |  | 21.6 ± 4.63% |  |  | CC(C)Cc1cc(CN2CCN(C[C@@H](O)COc3ccc(F)cc3)CC2)nn1-c1ccccc1 [KKRE10233]
4 |  | 84.2 ± 2.22% |  |  | CC(C)Cc1cc(CN2CCN(C[C@H](O)COc3ccc(C(F)(F)F)cc3)CC2)nn1-c1ccccc1 [KKRE10234]
5 | 19.8% | 19.8 ± 9.57% | 49.71% | 49.71 ± 5.83% | CC[C@H]1CN2CC[C@H]1C[C@H]2[C@H](O)c1ccnc2ccc(OC)cc12 [hydroquinine, reference compound]
6 |  |  | 33.46% | 33.46 ± 8.09% | C=C[C@H]1C[N@@]2CC[C@H]1C[C@@H]2[C@@H](O)c1ccnc2ccc(OC)cc12 [quinidine, reference compound]
7 | 17% | 17 ± 6.93% | 50.00% | 50.00 ± 5.72% | C=C[C@H]1C[N@@]2CC[C@H]1C[C@H]2[C@H](O)c1ccnc2ccc(OC)cc12 [quinine, reference compound]

The next lines start with the compound.

Row | SMILES | inhibition at 10 µM | inhibition at 101 µM | block % at 100 μM (Table 2) | block % at 100 μM (Table 3 (value ± spread))
8 | Cc1ccc(OC[C@@H](O)CN2CCN(Cc3c(F)cccc3Cl)CC2)cc1 [KKRE10138] | 13% | 13 ± 10.1% | 71.47% | 71.47 ± 3.30%
9 | O=C(CN1CCN(C[C@@H](O)COc2ccc(C(F)(F)F)cc2)CC1)Nc1ccc(F)cc1 [KKRE10145] | 35.2% | 35.2 ± 4.89% |  | 
10 | COc1cccc(C2CCN(C[C@@H](O)COc3ccc(F)cc3)CC2)c1 [KKRE10162, (R)-1-(4-fluorophenoxy)-3-(4-(3-methoxyphenyl)piperidin-1-yl)propan-2-ol] | 52.5% | 52.5 ± 6.76% |  | 
11 | Cc1ccc(CNC(=O)CN2CCN(C[C@H](O)COc3ccccc3)CC2)cc1 [KKRE10205, (S)-2-(4-(2-hydroxy-3-phenoxypropyl)piperazin-1-yl)-N-(4-methylbenzyl)acetamide] | 26.4% | 26.4 ± 12.2% |  | 
12 | O=C(CN1CCN(C[C@@H](O)COc2ccccc2)CC1)NCc1ccc(C(F)(F)F)cc1 [KKRE10206, (R)-2-(4-(2-hydroxy-3-phenoxypropyl)piperazin-1-yl)-N-(4-(trifluoromethyl)benzyl)acetamide] |  | 44 ± 7.7% |  | 
13 | O=C(CN1CCN(C[C@H](O)COc2ccccc2)CC1)NCc1ccc(C(F)(F)F)cc1 [KKRE10207, (S)-2-(4-(2-hydroxy-3-phenoxypropyl)piperazin-1-yl)-N-(4-(trifluoromethyl)benzyl)acetamide] | 53% | 53 ± 5.98% |  | 
